Measured values from patent publication US20250195499A1, “METHODS FOR PREVENTING OR TREATING CEREBROVASCULAR DISEASES OR TISSUE ISCHEMIA-REPERFUSION INJURY” (CO., LTD. OF JEAMOON TECHNOLOGY, priority 2022, published 2025).
Entries after “also recorded” stand apart in the source; their conditions may differ.

What was measured:
[1] = system: MCAO cerebral ischemia-reperfusion (IR) mice; details: male, C57BL/6J, mouse, in vivo, 5 days
[2] = system: MCAO cerebral ischemia-reperfusion (IR) mice; assay: MCAO cerebral ischemia-reperfusion (IR) mouse model, infarct area by TTC staining; assay type: in vivo, C57BL/6J mice; details: for Infarct area percentage (%) X ± SD: IR mice, po, QD, from 4 days before surgery, 1 h ischemia, 24 h reperfusion, IR model group 48.42 ± 24.21; for Infarcted area compared with the IR group mice (in words): oral administration
Protocol: A surgical incision was made in the neck to expose a left common carotid artery (CCA), an internal carotid artery (ICA), and an external carotid artery (ECA). A pre-made filament was inserted through the external carotid artery into the internal carotid artery and advanced to a middle cerebral artery (MCA), causing ischemia in a left brain region. After 60 minutes of occlusion, the filament was removed to achieve reperfusion in the left brain region. FIG. 5 is a schematic diagram illustrating the MCAO cerebral ischemia model using the intraluminal filament approach.
1. Animal anesthesia and neck preparation: the mice were anesthetized by inhalation of 2% isoflurane gas. After muscle relaxation, the four limbs of the mice were fixed to an operating table with 3M medical tape. Depilatory cream was used to remove the hair on a side of the neck, and erythromycin eye ointment was applied to the eyeballs of the mice to prevent eye dryness.
2. Surgical incision: the neck skin was disinfected sequentially with iodophor and 75% alcohol cotton balls. A 3 cm incision was made along the midline of the neck. Under a stereomicroscope, the subcutaneous tissue and fat were bluntly dissected, the superficial fascia and platysma were incised to expose the deep fascia of the neck and the anterior tracheal muscle. After the anterior tracheal muscle was exposed, the deep cervical fascia was torn along an anterior edge of the left sternocleidomastoideole, exposing the sternocleidomastoideole, which was then pulled posteriorly. The dissection continued downward along the sternocleidomastoideole until the deeper carotid sheath was exposed.
3. Vessel exposure and isolation: while avoiding compression of the mouse trachea, the carotid sheath was incised, and the common carotid artery (CCA) was isolated, taking care not to damage the vagus nerve running alongside in the sheath, as simulation or injury to the nerve may cause sudden respiratory arrest in the animal. The dissection continued upward along the common carotid artery, and the external carotid artery was identified at an upper edge of the thyroid cartilage. […] A proximal end of the external carotid artery was gently lifted to expose the internal carotid artery located laterally and inferiorly.
4. […] The internal carotid artery was temporarily clamped with a microvascular clip. […] The branch vessels were coagulated using an electrocautery pen. A distal end of the external carotid artery was permanently ligated with a 6-0 silk ligature, while the proximal end was looped for later use.
5. Filament insertion: a small incision was made at a ligated distal end of the external carotid artery, and the filament was threaded through the incision and tied with the pre-prepared loop ligature. The incision was cut off, and the filament was adjusted and threaded into the internal carotid artery. […] The ligature was tightened to fix the filament and timing started immediately.
6. After suturing the skin, anesthesia was discontinued. Following 60 minutes of ischemia, the filament was removed to complete cerebral ischemia-reperfusion.
7. Close the incision: the incision was closed using interrupted 4-0 sutures, disinfected with iodophor, and 3 mL of saline was injected intraperitoneally for rehydration. Postoperative analgesia jelly was provided, and the mice were kept warm and monitored continuously until they recover from anesthesia.
C57BL/6J male mice, aged 8 weeks, were acclimatized for 1 week and then randomly assigned to 7 groups. Except for eight mice in the blank control group (i.e., the sham-operated control group), the remaining mice underwent MCAO surgery to induce cerebral ischemia and were randomly divided into 6 groups, including an IR model group, a TAK875 group (12 mice per group), and four LY2922470 groups with different concentrations (8 mice per group). […]

SMILES: Cc1cc(OCCCS(C)(=O)=O)cc(C)c1-c1cccc(COc2ccc3c(c2)OC[C@H]3CC(=O)O)c1 [TAK875]
- Time of death after reperfusion [1]: 18 h
- Deaths after MCAO cerebral ischemia surgery ([1]; po, 30 mg/kg): one from the TAK875 group died
- Infarct area percentage (%) X ± SD ([2]; TAK875 30 mg/kg): 48.9 ± 25.13%
- Infarcted area compared with the IR group mice (in words) ([2]; TAK875 30 mg/kg): no significant decrease in the size of the infarcted area

SMILES: CC#C[C@@H](CC(=O)O)c1ccc(OCc2ccc(CN3CCCc4cccc(OC)c43)s2)cc1 [LY2922470]
- Infarct area percentage (%) X ± SD ([2]; LY2922470 10 mg/kg): 26.77 ± 14.54 (*) %
- Infarct area percentage (%) X ± SD ([2]; LY2922470 20 mg/kg): 30.55 ± 16.52%
- Infarct area percentage (%) X ± SD ([2]; LY2922470 40 mg/kg): 20.4 ± 6.88 (**) %
- Infarct area percentage (%) X ± SD ([2]; LY2922470 80 mg/kg): 31.03 ± 17.8%
- Infarcted area in the brain compared with the IR group mice (in words) ([2]; LY2922470 10 mg/kg): significantly reduced
- Infarcted area in the brain compared with the IR group mice (in words) ([2]; LY2922470 40 mg/kg): significantly reduced
- Infarcted area compared with the IR group mice (in words) ([2]; different doses of LY2922470 (10-80 mg/kg)): the infarcted area in the mice was reduced; also recorded: significantly decreased
